Data taken from EP2333100B1, “NAD(P)+-cofactor regeneration system und its use” (priority 2009, dated 2011).

What was measured:
Format in all cases: biochemical
[1] = target: 12α-HSDH aus Clostridium sp. group P strain 48-50, Wildtypenzym (Clostridium sp., UniProt P21215); assay: Product inhibition of 12α-HSDH by 12-ketochenodeoxycholic acid; settings: loss of activity at 5 % Umsatz; 100 % = activity at 0 % Umsatz (5mM CS); product concentration not given
Text: "Poduktinhibition" der 12α-HSDH beschreibt die Verringerung der enzymatischen Aktivität in Gegenwart eines bei einer durch das Enzym katalysierten enzymatischen Umsetzung gebildeten Produkts. Bei Umsetzung zu CS ist so z.B. eine Inhibition durch 12-Keto-CDCS zu beobachten. Eine "Verringerung der Produktinhibition" beschreibt die verringerte prozentuale Abnahme der Enzymaktivität einer erfindungsgemäß eingesetzten Enzymmutante im Vergleich zu einem Referenzsystem, wie z.B. dem nativen HSDH-Enzym, jeweils bezogen auf die bei 0 % Umsatz (entsprechend 5mM CS) ermittelte Enzymaktivität als 100 %-Aktivitätswert. Diese Verringerung kann, wie im experimentellen Teil, bzw. in der Legende zu Figur 9 beschrieben, bestimmt werden. Verringerungen der Produktinhibition können auch über das Verhältnis der Restaktivitäten von Mutante zu Referenzenzym jeweils bestimmt bei gleichem prozentualen Umsatz, ausgedrückt werden. So kann die ererfindungsgemäß eingesetzte Mutante eine um den Faktor 1,1 bis 100, wie z.B. 1,5 bis 20 oder 2 bis 10 erhöhte Aktivität besitzen.
Die Aktivität wird wie folgt definiert: 1 U des Enzyms entspricht der Enzymmenge, welche die Umsetzung von 1 µmol/min einer 5 mM Cholsäurelösung in KaliumphosphatPuffer (50 mM, pH 8,0) bei Raumtemperatur (d.h. ca. 20 °C-23 °C) katalysiert. […]

[2] = tested on: Diaphorase aus Clostridium kluyveri; assay: NADPH oxidation with DCIP as electron acceptor, tolerance to cholic acid; settings: remaining activity with 0,1 M Cholsäure, 100% = ohne Cholsäure; 75 µM DCIP, 100 µM NADPH, 50 mM Tris-HCl (pH 8)
Description: (§1) Die NADPH-Dehydrogenase Aktivität wurde unter Verwendung von Dichlorphenolindophenol (DCIP) als Substrat bestimmt. Die Reaktion wurde durch Zugabe von Enzym (2-50 µl) zu 1 ml Reaktionsgemisch, enthaltend 50 mM Tris-HCl (pH 8), 75 µM DCIP, 100 µM NADPH mit bzw. ohne 0,1 M Cholsäure gestartet. Die Reduktion von DCIP wurde durch Abnahme der Extinktion bei 600 nm spektrophotometrisch bestimmt. Die Aktivitätseinheit (µM DCIP reduziert/min) wurde mit Hilfe des Extinktions-Coeffizienten von DCIP von 20 mM^-1 cm^-1 bei 600 nm bestimmt.
(§2) Folgende Enzyme wurden getestet: Flavodoxin Reduktase aus E. coli, Reduktase Domäne der CYP102A1 aus Bacillus megaterium; Glutathion Reduktase aus Saccharomyces cerevisiae und Diaphorase aus Clostridium kluyveri. Die Ergebnisse sind in der folgenden Tabelle 2 zusammengestellt.

[3] = target: T1, Flavodoxin Reduktase aus E. coli (EC 1.18.1.2), SEQ ID NO: 26 (Escherichia coli, UniProt P28861); assay: as above; settings: remaining activity with 0,1 M Cholsäure, 100% = ohne Cholsäure; 75 µM DCIP, 100 µM NADPH, 50 mM Tris-HCl (pH 8); read-out: Mit 0, 1 M Cholsäure, U/mg Protein (%)
T1 construct: made in house; host or cells: E. coli
Description: as §1, §2

[4] = target: T2, Glutathion Reduktase aus Saccharomyces cerevisiae (Saccharomyces cerevisiae, UniProt P41921); assay: as above; settings: remaining activity with 0,1 M Cholsäure, 100% = ohne Cholsäure; 75 µM DCIP, 100 µM NADPH, 50 mM Tris-HCl (pH 8); read-out: Mit 0, 1 M Cholsäure, U/mg Protein (%)
T2 construct: purchased Sigma
T2 sequence (P41921 1-467 isoform P41921-2): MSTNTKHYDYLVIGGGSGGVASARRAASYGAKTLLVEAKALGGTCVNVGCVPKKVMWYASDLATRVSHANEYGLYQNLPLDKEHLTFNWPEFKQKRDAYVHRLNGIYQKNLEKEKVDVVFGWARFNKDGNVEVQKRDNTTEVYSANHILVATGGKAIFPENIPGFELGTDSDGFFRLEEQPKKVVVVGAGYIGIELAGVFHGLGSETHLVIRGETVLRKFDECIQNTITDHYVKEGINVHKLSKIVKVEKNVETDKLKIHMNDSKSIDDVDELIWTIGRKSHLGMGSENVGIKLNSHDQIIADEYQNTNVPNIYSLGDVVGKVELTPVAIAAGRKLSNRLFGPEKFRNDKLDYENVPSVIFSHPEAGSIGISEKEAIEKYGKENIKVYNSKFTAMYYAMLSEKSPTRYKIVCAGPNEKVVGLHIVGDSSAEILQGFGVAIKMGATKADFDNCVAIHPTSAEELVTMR
Description: as §1, §2

[5] = target: Reduktase Domäne der CYP102A1 aus Bacillus megaterium (EC 1.6.2.4), SEQ ID NO: 24 (Priestia megaterium, UniProt P14779); assay: as above; settings: remaining activity with 0,1 M Cholsäure, 100% = ohne Cholsäure; 75 µM DCIP, 100 µM NADPH, 50 mM Tris-HCl (pH 8); read-out: Mit 0, 1 M Cholsäure, U/mg Protein (%)
Description: as §1, §2

[6] = target: T3, NAD(P)H-Flavin Reduktase aus E. coli (EC 1.5.1.29 / 1.16.1.3), SEQ ID NO: 30 (Escherichia coli, UniProt P0AEN1); assay: NADPH oxidation with riboflavin as electron acceptor, tolerance to cholic acid; settings: activity with 0,1 M Cholsäure, 100% = ohne Cholsäure; 10 µM Riboflavin, 100 µM NADPH, 50 mM Tris-HCl (pH 8); read-out: Mit 0, 1 M Cholsäure, U/ml E. coli Zell-Lysate (%)
T3 construct: made in house; host or cells: E. coli (cell lysate)
Description: (§3) Die NADPH-Oxidation unter Verwendung von Riboflavin als Elektronenakzeptor wurde in 1 ml Reaktionsmedium, enthaltend 2-50 µl Enzymlösung, 50 mM Tris-HCl (pH 8), 10 µM Riboflavin, 100 µM NADPH mit und ohne 0,1 M Cholsäure bestimmt. Die Oxidation von NADPH wurde über die Abnahme der Extinktion bei 340 nm spektrophotometrisch aufgezeichnet. Die Aktivitätseinheit (uM NADPH oxidiert/min) wurde mit Hilfes des millimolaren Extinktionscoeffizienten für NADPH von 6,22 mM^-1 cm^-1 bei 340 nm bestimmt.
(§4) Folgende Enzyme wurden getestet: NADPH Dehydrogenase aus Bacillus stearothermophilus Sulfit Reduktase, Flavin-Subunit von Sulfit-Reduktase aus E. coli und NAD(P)H-Flavin Reduktase aus E. coli. Die Ergebnisse sind in folgender Tabelle 3 zusammengefasst: TABELLE 3

[7] = tested on: NADPH Dehydrogenase aus Bacillus stearothermophilus Sulfit Reduktase (EC 1.8.1.2), SEQ ID NO: 28; assay: as above; settings: activity with 0,1 M Cholsäure, 100% = ohne Cholsäure; 10 µM Riboflavin, 100 µM NADPH, 50 mM Tris-HCl (pH 8)
Description: as §3, §4

[8] = target: T4, NADPH Dehydrogenase aus Sulfit-Reduktase (E. coli); Flavin-Subunit von Sulfit-Reduktase aus E. coli (Escherichia coli, UniProt P38038); assay: as above; settings: activity with 0,1 M Cholsäure, 100% = ohne Cholsäure; 10 µM Riboflavin, 100 µM NADPH, 50 mM Tris-HCl (pH 8)
T4 construct: made in house; host or cells: E. coli (cell lysate)
Description: as §3, §4

Chain of 12α-HSDH aus Clostridium sp. group P strain 48-50, Wildtypenzym (P21215 whole entry): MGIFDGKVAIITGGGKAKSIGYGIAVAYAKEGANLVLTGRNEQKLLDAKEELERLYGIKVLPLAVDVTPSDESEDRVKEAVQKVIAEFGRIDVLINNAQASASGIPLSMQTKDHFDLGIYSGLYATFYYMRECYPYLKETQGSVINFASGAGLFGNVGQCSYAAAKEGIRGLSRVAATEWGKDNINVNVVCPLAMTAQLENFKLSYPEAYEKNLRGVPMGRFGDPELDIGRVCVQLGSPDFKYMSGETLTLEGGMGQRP
T4 sequence (P38038 whole entry): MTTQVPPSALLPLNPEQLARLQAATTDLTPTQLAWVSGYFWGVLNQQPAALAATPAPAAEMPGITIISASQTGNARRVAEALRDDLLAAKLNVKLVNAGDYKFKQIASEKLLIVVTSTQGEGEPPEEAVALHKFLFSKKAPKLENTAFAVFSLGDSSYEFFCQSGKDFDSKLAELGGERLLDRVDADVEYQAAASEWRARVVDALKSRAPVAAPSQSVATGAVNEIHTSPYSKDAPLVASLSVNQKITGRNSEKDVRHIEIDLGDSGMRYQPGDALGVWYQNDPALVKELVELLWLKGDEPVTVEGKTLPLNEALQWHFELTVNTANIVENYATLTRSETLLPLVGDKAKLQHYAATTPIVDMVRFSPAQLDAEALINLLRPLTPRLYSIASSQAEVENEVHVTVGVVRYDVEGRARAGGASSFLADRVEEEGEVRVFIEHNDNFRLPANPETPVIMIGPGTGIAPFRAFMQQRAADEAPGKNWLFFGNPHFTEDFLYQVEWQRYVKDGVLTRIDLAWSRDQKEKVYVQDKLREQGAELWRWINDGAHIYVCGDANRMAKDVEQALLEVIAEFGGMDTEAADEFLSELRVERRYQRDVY
Chain of Reduktase Domäne der CYP102A1 aus Bacillus megaterium (EC 1.6.2.4), SEQ ID NO: 24 (P14779 473-1049): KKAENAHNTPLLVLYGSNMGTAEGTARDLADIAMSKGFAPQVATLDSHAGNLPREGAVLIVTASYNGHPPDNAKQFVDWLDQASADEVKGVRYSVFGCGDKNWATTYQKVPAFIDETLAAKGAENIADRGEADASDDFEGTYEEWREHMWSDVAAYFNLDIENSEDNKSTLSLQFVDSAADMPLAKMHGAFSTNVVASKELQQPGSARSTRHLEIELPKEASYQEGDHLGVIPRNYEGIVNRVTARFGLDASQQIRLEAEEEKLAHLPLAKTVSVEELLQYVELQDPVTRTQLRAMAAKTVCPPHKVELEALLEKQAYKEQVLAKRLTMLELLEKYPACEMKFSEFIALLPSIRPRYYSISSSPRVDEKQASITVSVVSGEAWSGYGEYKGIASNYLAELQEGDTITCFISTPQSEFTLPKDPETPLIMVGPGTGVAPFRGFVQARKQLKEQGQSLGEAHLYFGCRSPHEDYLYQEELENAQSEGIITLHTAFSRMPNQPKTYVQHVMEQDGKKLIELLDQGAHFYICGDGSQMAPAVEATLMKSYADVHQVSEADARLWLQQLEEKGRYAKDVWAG
T1 sequence (P28861 whole entry): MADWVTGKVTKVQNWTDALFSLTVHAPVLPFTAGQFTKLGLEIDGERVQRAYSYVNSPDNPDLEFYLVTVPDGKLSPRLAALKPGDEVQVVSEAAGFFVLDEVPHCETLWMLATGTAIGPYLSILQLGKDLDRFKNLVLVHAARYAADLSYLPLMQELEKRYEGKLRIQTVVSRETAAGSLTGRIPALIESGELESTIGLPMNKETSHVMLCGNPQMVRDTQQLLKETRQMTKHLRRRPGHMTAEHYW
T3 sequence (P0AEN1 whole entry): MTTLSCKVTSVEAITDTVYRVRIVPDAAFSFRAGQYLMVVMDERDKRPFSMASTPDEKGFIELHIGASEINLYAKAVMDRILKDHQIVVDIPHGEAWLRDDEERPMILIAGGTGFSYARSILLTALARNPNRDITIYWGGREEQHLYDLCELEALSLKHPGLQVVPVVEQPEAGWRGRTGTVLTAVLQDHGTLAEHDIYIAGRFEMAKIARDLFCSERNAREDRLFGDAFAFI

Row | Compound | Verlust (Produktinhibierung durch 12-Ketochenodesoxycholsäure) [1] [%] | Mit 0, 1 M Cholsäure, U/mg Protein (%) [2] | activity at 100000 µM [3] [%] | activity at 100000 µM [4] [%] | activity at 100000 µM [5] [%] | activity at 100000 µM [6] [%] | Mit 0, 1 M Cholsäure, U/ml E. coli Zell-Lysate (%) [7] | Mit 0, 1 M Cholsäure, U/ml E. coli Zell-Lysate (%) [8]
1 | C[C@H](CCC(=O)O)[C@H]1CC[C@H]2[C@@H]3[C@H](O)C[C@@H]4C[C@H](O)CC[C@]4(C)[C@H]3CC(=O)[C@]12C [12-Ketochenodesoxycholsäure] | 60 |  |  |  |  |  |  | 
2 | C[C@H](CCC(=O)O)[C@H]1CC[C@H]2[C@@H]3[C@H](O)C[C@@H]4C[C@H](O)CC[C@]4(C)[C@H]3C[C@H](O)[C@]12C [Cholsäure] |  | 0,26 (3 %) | 93 | 15 | 35 | 5 | 22,1 (155 %) | 2,1 (6 %)
